Data on 1 compound can be found in patent publication US20250263404A1, “AMINOPYRIDINES AS ACTIVATORS OF PI3 KINASE” (UCL Business Ltd, priority 2021, published 2025).

The subject of the assay is PI3Kα-WT and PI3Kα-KO MEFs. The assay can be described thus: Mass spectrometry-based phosphoproteomics in MEFs. Conditions: for differentially phosphorylated peptides/sites: PI3Kα-WT MEFs. In kind it is cell-based, mouse. How it is done:
The inventors next investigated the impact of 1938 on cell signalling in an unbiased manner using phosphoproteomics. […] The inventors quantified 10,611 phosphosites from 3,093 proteins of which 9100, 1420 and 91 were pSer, pThr and pTyr residues, respectively (FIG. 16/Extended Data FIG. 8a). […] Compared to vehicle-treated cells, insulin treatment of PI3Kα-WT MEFs induced differential phosphorylation of 11 and 18 sites at 15 min and 4 h, respectively (FIG. 16/Extended Data FIG. 8c). […] Furthermore, approximately half of the 1938-controlled phosphosites have been previously reported (in PhosphoSitePlus) to be regulated by insulin, IGF-1, PI3K inhibition or AKT inhibition, with some linked to regulation by mTOR or PDK1 (FIG. 3gi,ii).
PI3Kα-WT and PI3Kα-KO MEFs, grown in 15 cm dishes, were serum-starved overnight in DMEM with 1% penicillin-streptomycin and stimulated by the addition of 0.05% DMSO, […] 1938 in final 0.05% DMSO or 100 nM insulin (Sigma, 15016) for 15 min or 4 h. Cells were lysed in […] urea lysis buffer [50 mM triethylammonium bicarbonate, 8 M urea, cOmplete™, EDTA-free protease inhibitor cocktail (1:50 dilution) (Roche, 11873580001), 1 PhosSTOP tablet (Roche, 4906845001), 1 mM sodium orthovanadate] and lysates sonicated until clear for ˜10 min with cooling breaks on ice. Protein concentration was measured using a BCA protein assay (Pierce #23227). 300 μg of protein was reduced with 5 mM Tris(2-carboxyethyl)phosphine hydrochloride (Sigma, C4706) at 37° C. for 20 min and alkylated using 10 mM 2-chloroacetamide (Sigma, 22790) for 20 min at room temperature in the dark. Proteins were digested with LysC for 3.5 h at 30° C. […] Fifty percent of each sample was analysed as 10 μl injections. […] Precursor ions were measured in a data-dependent mode in the orbitrap analyser at a resolution of 70,000 and a target value of 3e6 ions. The ten most intense ions from each MS1 scan were isolated, fragmented in the HCD cell, and measured in the Orbitrap at a resolution of 17,500. […]

For the compound `CCN1CCN(c2ccc(Nc3cc(Nc4cccc5c4N(C(C)=O)CC5)ccn3)cc2)CC1` [Example 1938], the “signalling impact in PI3Kα-KO MEFs” value (PI3Kα-KO MEFs) is listed as “little signalling impact”. For the same compound, the differentially phosphorylated peptides/sites worked out at 27 (15 min treatment) and 50 (4 h treatment).
